Source: US6699686B1, “Modified nuclear glucocorticoid receptor, fusion protein, and DNA fragments coding for said receptor and said fusion protein” (Association pour le Development de la Recherche en …, priority 1996, dated 2004)

Tests used:
Cre-LBD[GR(I747/T)] [1] = target: T1, Cre-LBD[GR(I747/T)] (Homo sapiens, UniProt P04150, I747T); test: PCR analysis of recombinase activity in RXRα+/−(LNL):Cre-GR(I747/T) line constitutively expressing the chimeric protein; assay type: cell-based; conditions: for recombinase activity: ligand concentration ranging from 10^−9 to 10^−6 M; for recombinase activity (191 bp PCR fragment of recombinant allele): ligand 10^−6 M, 72 hours, expression cassette integrated into the genome
T1 construct: the region containing the mutated LBD of HG1 [aa 500-777]; Cre recombinase aa 1-343 (bacteriophage P1); F region of the human estrogen receptor (aa 553-595); expressed in transfected cells
T1 sequence (P04150 500-777 I747T): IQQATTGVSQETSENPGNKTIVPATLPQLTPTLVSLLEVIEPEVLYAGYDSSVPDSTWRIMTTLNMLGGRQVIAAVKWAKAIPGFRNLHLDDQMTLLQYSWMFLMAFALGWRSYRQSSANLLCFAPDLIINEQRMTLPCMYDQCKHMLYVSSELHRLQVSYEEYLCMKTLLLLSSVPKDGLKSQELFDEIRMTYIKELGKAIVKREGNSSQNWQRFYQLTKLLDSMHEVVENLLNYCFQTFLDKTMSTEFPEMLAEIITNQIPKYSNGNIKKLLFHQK
Procedure: The resistant clones were obtained according to the procedure described by Metzger et al. (28).
(§1) The DNA amplifications were carried out using the “Polymerase Chain Reaction” (PCR) technique according to the protocol described by Chen and Evans (60). The primers used are: SB211 and PZ105, having respectively as nucleotide sequence 5′-[…]-3′ (SEQ ID NO: 10) and 5′-[…]-3′ (SEQ ID NO: 11). After denaturation for 8 min at 94° C., 2.5 units of Taq polymerase are added. The amplification is carried out by performing 35 cycles (30 sec. at 94° C., 30 sec. at 50° C.) followed by one cycle (30 sec. at 94° C., 30 sec. at 50° C., 5 min at 72° C.), the product of which is stored at 4° C.
(§2) The products of the reactions were separated on polyacrylamide (10%) or agarose (2.5%) gel. The DNA was visualized by UV followed by ethidium bromide staining, or by Southern blotting (42).
The amplified DNA was separated on acrylamide gel and stained with ethidium bromide. Lanes 1, 2, 3 and 4 contain respectively the PCR products produced with DNA extracted from wild-type (WT) F9 cells, RXRα^+/−(LNL), RXRα^+/−(L) cells and C2RXRα^+(L)/−(L) cells (73). Lane 8 contains a size marker (1 kb ladder; GibcoBRL).
The amplified DNA was separated on agarose gel and analyzed according to the Southern technique. The amplified fragments corresponding to the wild-type and recombinant alleles were detected by hybridization with the aid of the synthetic oligonucleotide (5′-[…]-3′) (SEQ ID NO: 12), radiolabeled at the 5′ end with T4 polynucleotide kinase. The signal was visualited and quantified with the aid of a “phosphoimager” (Fujix bas2000).
The recombinant allele was detected according to the procedure described in FIG. 8. The amplified DNA was separated on agarose gel and analyzed according to the Southern technique. The amplified fragments corresponding to the recombinant allele were detected by autoradiography following hybridization with the synthetic oligonucleotide 5′-[…]-3′ (SEQ ID NO: 13), (containing a loxP site) radiolabeled with Phosphorus^32 at the 5′ end by T4 polynucleotide kinase.
The recombinase activity was tested following a treatment of these cells with Dex (10^−6 M) for 72 hours.

Cre-LBD[GR(I747/T)] [2] = target: T1, Cre-LBD[GR(I747/T)]; test: PCR test of excision between loxP sites after transient transfection of pCre-LBD[GR(I747/T)] in RXRα+/−(LNL) F9 cells; assay type: cell-based; conditions: ligand 10^−6 M, 72 hours, murine F9 RXRα+/−(LNL) cells
Procedure: [optionally cotransfected with 5 μg of the vector pRXRα^(LNL) for the HeLa cells] with the aid of an electroporator (Bio-Rad gene pulser), set at 200 V and 960 μF. The cells were then inoculated at 10^6 cells per 100 mm dish and treated, if necessary, with ligands.
as §1, §2
The products of the reaction were separated on acrylamide gel and stained with ethidium bromide.

| Compound | recombinase activity (Cre-LBD[GR(I747/T)] [1]) | excision of sequences between loxP sites (191 bp PCR fragment of recombinant allele) (Cre-LBD[GR(I747/T)] [2]) | recombinase activity (191 bp PCR fragment of recombinant allele) (Cre-LBD[GR(I747/T)] [1]) | recombinase activity (191 bp PCR fragment of recombinant allele) (Cre-LBD[GR(I747/T)] [1]; listed as Dex) |
| --- | --- | --- | --- | --- |
| C[C@]12CCC(=O)C=C1CC[C@@H]1[C@@H]2[C@@H](O)C[C@]2(C=O)[C@@H](C(=O)CO)CC[C@@H]12 [Aldosterone, aldosterone] | No recombinase activity | – | – | – |
| C[C@]12C[C@H](O)[C@H]3[C@@H](CCC4=CC(=O)CC[C@@]43C)[C@@H]1CC[C@@H]2C(=O)CO [Corticosterone, corticosterone] | No recombinase activity | – | – | – |
| C[C@]12CCC(=O)C=C1CC[C@@H]1[C@@H]2[C@@H](O)C[C@@]2(C)[C@H]1CC[C@]2(O)C(=O)CO [Cortisol, cortisol] | No recombinase activity | no fragment of this size is observed | inactive | – |
| C[C@@H]1C[C@H]2[C@@H]3CCC4=CC(=O)C=C[C@]4(C)[C@@]3(F)[C@@H](O)C[C@]2(C)[C@@]1(O)C(=O)CO [Dexamethasone, dexamethasone] | – | – | – | active |
